In the supplement of paper PMC8617591:

Key:
[1] = test system: Mycobacterium tuberculosis Erdman (autoluminescent); experiment: total FIC50 (Loewe) at 50% inhibition, three-drug combination (log2); higher = more antagonistic
Procedure: (§1)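 DiaMOND equipotent three-drug combination dose responses (10 doses, 1.5- or 2-fold spacing, centred on IC90) against autoluminescent M. tuberculosis Erdman in 8 in vitro models. Read-out is OD600, or luminescence for the intracellular and dormancy models, normalised to untreated wells. Hill-fit Einf, AUC25 and GRinf are potency metrics; FIC50 and FIC90 are total Loewe fractional inhibitory concentrations as log2 (negative = synergy).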

[2] = test system: Mycobacterium tuberculosis Erdman (autoluminescent); experiment: total FIC90 (Loewe) at 90% inhibition, three-drug combination (log2); higher = more antagonistic
Procedure: as §1

[3] = test system: Mycobacterium tuberculosis Erdman (autoluminescent); experiment: Einf, fitted maximum growth inhibition of three-drug combination (fraction); higher = stronger maximal inhibition
Procedure: as §1

[4] = test system: Mycobacterium tuberculosis Erdman (autoluminescent); experiment: AUC25, normalised area under dose response up to IC25 (three-drug combination) (fraction (0-1)); higher = more potent at low dose
Procedure: as §1

[5] = test system: Mycobacterium tuberculosis Erdman (autoluminescent); experiment: GRinf, maximum normalised growth rate inhibition (three-drug combination) (unitless (-1 to 1)); higher = less effect (negative = killing)
Procedure: as §1

COc1nc2ccc(Br)cc2cc1[C@@H](c1ccccc1)[C@@](O)(CCN(C)C)c1cccc2ccccc12 [bedaquiline] + CC(C)/N=c1\cc2n(-c3ccc(Cl)cc3)c3ccccc3nc-2cc1Nc1ccc(Cl)cc1 [clofazimine] + COc1c(N2C[C@@H]3CCCN[C@@H]3C2)c(F)cc2c(=O)c(C(=O)O)cn(C3CC3)c12 [moxifloxacin]
Conditions | AUC25, [4] | Einf, [3] | GRinf, [5] | total FIC50, [1] | total FIC90, [2]
in vitro model: acidic pH 5.7, time point: constant (~7 days, model-specific) | 0.0874 | 0.698 | -0.457 | 1.07 | –
in vitro model: acidic pH 5.7, time point: terminal (~4-5 doublings, model-specific) | 0.0681 | 0.957 | -0.368 | 0.792 | 0.0494
in vitro model: intracellular J774, time point: constant = terminal | – | 0.974 | -0.345 | – | 0.0395

Conditions | AUC25, [4] | Einf, [3] | GRinf, [5] | total FIC50, [1] | total FIC90, [2]
in vitro model: butyrate, time point: constant (~7 days, model-specific) | 0.0682 | 0.95 | -0.111 | -0.0983 | -0.596
in vitro model: butyrate, time point: terminal (~4-5 doublings, model-specific) | 0.0514 | 0.979 | -0.117 | 0.0193 | -0.388
in vitro model: cholesterol 0.05 mM, time point: constant (~7 days, model-specific) | 0.0732 | 0.724 | -0.218 | -0.685 | –
in vitro model: cholesterol 0.05 mM, time point: terminal (~4-5 doublings, model-specific) | 0.0839 | 0.927 | -0.23 | 0.399 | -1.01
in vitro model: cholesterol-high 0.2 mM, time point: constant (~7 days, model-specific) | 0.094 | 0.97 | -0.382 | -0.248 | 0.136
in vitro model: cholesterol-high 0.2 mM, time point: terminal (~4-5 doublings, model-specific) | 0.0879 | 1 | -0.535 | 0.0978 | -0.0166
in vitro model: dormancy (butyrate + nitrate, low O2), time point: constant (~7 days, model-specific) | 0.0734 | 0.907 | 0.241 | -0.202 | -0.9
in vitro model: dormancy (butyrate + nitrate, low O2), time point: terminal (~4-5 doublings, model-specific) | 0.0897 | 0.997 | -0.093 | -0.168 | 0.176
in vitro model: standard 7H9 glycerol, time point: constant = terminal | 0.0896 | 0.983 | -0.156 | -0.176 | -0.548
in vitro model: valerate, time point: constant (~7 days, model-specific) | 0.121 | 0.959 | -0.201 | 0.443 | –
in vitro model: valerate, time point: terminal (~4-5 doublings, model-specific) | 0.0856 | 0.968 | -0.1 | 0.482 | 1.71

COc1nc2ccc(Br)cc2cc1[C@@H](c1ccccc1)[C@@](O)(CCN(C)C)c1cccc2ccccc12 [bedaquiline] + CC(C)/N=c1\cc2n(-c3ccc(Cl)cc3)c3ccccc3nc-2cc1Nc1ccc(Cl)cc1 [clofazimine] + NC(=O)c1cnccn1 [pyrazinamide]
Conditions | AUC25, [4] | Einf, [3] | GRinf, [5] | total FIC50, [1] | total FIC90, [2]
in vitro model: acidic pH 5.7, time point: constant (~7 days, model-specific) | 0.0929 | 0.862 | -0.349 | 0.0846 | –
in vitro model: acidic pH 5.7, time point: terminal (~4-5 doublings, model-specific) | 0.074 | 0.968 | -0.284 | 0.193 | -0.409
in vitro model: intracellular J774, time point: constant = terminal | – | 0.963 | -0.197 | – | -0.109

Conditions | AUC25, [4] | Einf, [3] | GRinf, [5] | total FIC50, [1] | total FIC90, [2]
in vitro model: butyrate, time point: constant (~7 days, model-specific) | 0.0756 | 0.946 | -0.0789 | -0.624 | -0.916
in vitro model: butyrate, time point: terminal (~4-5 doublings, model-specific) | 0.0582 | 0.977 | -0.0813 | -0.595 | -1.03
in vitro model: cholesterol 0.05 mM, time point: constant (~7 days, model-specific) | 0.0812 | 0.732 | -0.17 | – | –
in vitro model: cholesterol 0.05 mM, time point: terminal (~4-5 doublings, model-specific) | 0.0926 | 0.939 | -0.225 | 0.513 | –
in vitro model: cholesterol-high 0.2 mM, time point: constant (~7 days, model-specific) | 0.06 | 0.921 | -0.227 | -0.0552 | –
in vitro model: cholesterol-high 0.2 mM, time point: terminal (~4-5 doublings, model-specific) | 0.0776 | 1 | -0.556 | 0.345 | -0.162
in vitro model: dormancy (butyrate + nitrate, low O2), time point: constant (~7 days, model-specific) | 0.0795 | 0.924 | 0.201 | -1.18 | -1.48
in vitro model: dormancy (butyrate + nitrate, low O2), time point: terminal (~4-5 doublings, model-specific) | 0.0671 | 0.991 | -0.181 | -0.97 | -1.37
in vitro model: standard 7H9 glycerol, time point: constant = terminal | 0.0904 | 0.961 | -0.0928 | -0.389 | –
in vitro model: valerate, time point: constant (~7 days, model-specific) | 0.103 | 0.884 | 0.0304 | 0.388 | –
in vitro model: valerate, time point: terminal (~4-5 doublings, model-specific) | 0.0692 | 0.929 | 0.0196 | 0.415 | 0.773

COc1nc2ccc(Br)cc2cc1[C@@H](c1ccccc1)[C@@](O)(CCN(C)C)c1cccc2ccccc12 [bedaquiline] + CC(C)/N=c1\cc2n(-c3ccc(Cl)cc3)c3ccccc3nc-2cc1Nc1ccc(Cl)cc1 [clofazimine] + NNC(=O)c1ccncc1 [isoniazid]
Conditions | AUC25, [4] | Einf, [3] | GRinf, [5] | total FIC50, [1] | total FIC90, [2]
in vitro model: acidic pH 5.7, time point: constant (~7 days, model-specific) | 0.11 | 0.842 | -0.379 | 0.675 | –
in vitro model: acidic pH 5.7, time point: terminal (~4-5 doublings, model-specific) | 0.09 | 0.969 | -0.293 | 0.356 | 0.616
in vitro model: intracellular J774, time point: constant = terminal | – | 0.96 | -0.447 | – | -0.134

Conditions | AUC25, [4] | Einf, [3] | GRinf, [5] | total FIC50, [1] | total FIC90, [2]
in vitro model: butyrate, time point: constant (~7 days, model-specific) | 0.0622 | 0.945 | -0.1 | -0.0224 | -0.194
in vitro model: butyrate, time point: terminal (~4-5 doublings, model-specific) | 0.0523 | 0.979 | -0.119 | -0.00128 | -0.306
in vitro model: cholesterol 0.05 mM, time point: constant (~7 days, model-specific) | 0.0812 | 0.724 | -0.209 | -0.55 | –
in vitro model: cholesterol 0.05 mM, time point: terminal (~4-5 doublings, model-specific) | 0.0932 | 0.933 | -0.263 | 0.444 | -0.22
in vitro model: cholesterol-high 0.2 mM, time point: constant (~7 days, model-specific) | 0.0765 | 0.955 | -0.396 | 0.226 | 0.206
in vitro model: cholesterol-high 0.2 mM, time point: terminal (~4-5 doublings, model-specific) | 0.0685 | 1 | -0.54 | 0.648 | 0.259
in vitro model: dormancy (butyrate + nitrate, low O2), time point: constant (~7 days, model-specific) | 0.0746 | 0.911 | 0.317 | 0.0126 | -0.362
in vitro model: dormancy (butyrate + nitrate, low O2), time point: terminal (~4-5 doublings, model-specific) | 0.0741 | 0.991 | -0.0967 | -0.283 | -0.303
in vitro model: standard 7H9 glycerol, time point: constant = terminal | 0.0945 | 0.97 | -0.0956 | -0.294 | -0.677
in vitro model: valerate, time point: constant (~7 days, model-specific) | 0.109 | 0.903 | -0.0916 | 0.133 | -0.379
in vitro model: valerate, time point: terminal (~4-5 doublings, model-specific) | 0.0654 | 0.948 | -0.0502 | 0.246 | 0.504
